Test results: ChEMBL document CHEMBL3046202, “Synthesis, spectral studies, antimicrobial and insect antifeedant potent keto oxiranes” (2011)
Activity calls are given as the source filed them. The calls are words filed in the database; no cut-off is given here.

Key:
Pseudomonas = assay: Antibacterial activity against Pseudomonas assessed as diameter of growth zone inhibition at 250 ug/ml after 24-45 hrs by disc diffusion technique; assay type: functional; details: read-out: DIZ
Staphylococcus aureus = assay: Antibacterial activity against Staphylococcus aureus assessed as diameter of growth zone inhibition at 250 ug/ml after 24-45 hrs by disc diffusion technique; assay type: functional; details: read-out: DIZ
Klebsiella = assay: Antibacterial activity against Klebsiella assessed as diameter of growth zone inhibition at 250 ug/ml after 24-45 hrs by disc diffusion technique; assay type: functional; details: read-out: DIZ
Proteus vulgaris = assay: Antibacterial activity against Proteus vulgaris assessed as diameter of growth zone inhibition at 250 ug/ml after 24-45 hrs by disc diffusion technique; assay type: functional; details: read-out: DIZ
Escherichia coli = assay: Antibacterial activity against Escherichia coli assessed as diameter of growth zone inhibition at 250 ug/ml after 24-45 hrs by disc diffusion technique; assay type: functional; details: read-out: DIZ
Candida albicans = assay: Antifungal activity against Candida albicans assessed as diameter of growth zone inhibition at 250 ug/ml after 72 hrs by disc diffusion technique; assay type: functional; details: read-out: DIZ
Enterococcus faecalis [1] = assay: Antibacterial activity against Enterococcus faecalis assessed as diameter of growth zone inhibition at 250 ug/ml after 24-45 hrs by disc diffusion technique; assay type: functional; details: read-out: DIZ
Penicillium = assay: Antifungal activity against Penicillium assessed as growth inhibition at 50 ug/ml after 72 hrs by dilution method; assay type: functional, organism-based
Enterococcus faecalis [2] = assay: Antibacterial activity against Enterococcus faecalis assessed as growth inhibition at 250 ug/ml after 24-45 hrs by disc diffusion technique; assay type: functional, organism-based
Aspergillus niger = assay: Antifungal activity against Aspergillus niger assessed as growth inhibition at 50 ug/ml after 72 hrs by dilution method; assay type: functional, organism-based
Achaea janata [3] = assay: Antifeedant activity against fourth-instar larval stage of Achaea janata L. in castor leaves assessed as decrease in leaf disc consumption at 200 ppm treated for 5 mins before larval infestation by leaf-disc bioassay method; assay type: functional, organism-based
Achaea janata [4] = assay: Antifeedant activity against fourth-instar larval stage of Achaea janata L. in castor leaves assessed as decrease in leaf disc consumption at 50 to 200 ppm treated for 5 mins before larval infestation by leaf-disc bioassay method; assay type: functional, organism-based

| SMILES | zone of inhibition at 250 µg/mL (Pseudomonas) [mm] | zone of inhibition at 250 µg/mL (Staphylococcus aureus) [mm] | zone of inhibition at 250 µg/mL (Klebsiella) [mm] | zone of inhibition at 250 µg/mL (Proteus vulgaris) [mm] | zone of inhibition at 250 µg/mL (Escherichia coli) [mm] | zone of inhibition at 250 µg/mL (Candida albicans) [mm] | zone of inhibition at 250 µg/mL (Enterococcus faecalis [1]) [mm] | growth inhibition (GI) (Penicillium) | growth inhibition (GI) (Enterococcus faecalis [2]) | growth inhibition (GI) (Aspergillus niger) | Activity (Achaea janata [3]) | Activity (Achaea janata [4]) |
| --- | --- | --- | --- | --- | --- | --- | --- | --- | --- | --- | --- | --- |
| COc1ccc([C@H]2O[C@@H]2C(=O)c2ccc(-c3ccccc3)cc2)cc1 | 13 | 13 | 13 | 13 | 13 | 20 | 20 | Active | – | – | – | – |
| O=C(c1ccc(-c2ccccc2)cc1)[C@H]1O[C@@H]1c1ccc(O)cc1 | 13 | 13 | 13 | 13 | 13 | 20 | – | – | inactive | – | – | – |
| O=C(c1ccc(-c2ccccc2)cc1)[C@H]1O[C@@H]1c1ccccc1 | 8 | 8 | 8 | 8 | 8 | – | – | inactive | inactive | inactive | – | – |
| O=C(c1ccc(-c2ccccc2)cc1)[C@H]1O[C@@H]1c1ccccc1[N+](=O)[O-] | 13 | 13 | 13 | 13 | 13 | – | – | inactive | inactive | inactive | – | – |
| CN(C)c1ccc([C@H]2O[C@@H]2C(=O)c2ccc(-c3ccccc3)cc2)cc1 | 20 | 20 | 13 | 13 | 20 | 8 | – | Active | inactive | Active | – | – |
| O=C(c1ccc(-c2ccccc2)cc1)[C@H]1O[C@@H]1c1cccc([N+](=O)[O-])c1 | 13 | 13 | 13 | 13 | 13 | – | – | – | inactive | – | – | – |
| Nc1cccc([C@H]2O[C@@H]2C(=O)c2ccc(-c3ccccc3)cc2)c1 | 13 | 20 | 20 | 13 | 20 | – | 20 | – | – | – | – | – |
| O=C(c1ccc(-c2ccccc2)cc1)[C@H]1O[C@@H]1c1cccc(Cl)c1 | 13 | 13 | 13 | 13 | 13 | – | – | – | inactive | – | Active | – |
| O=C(c1ccc(-c2ccccc2)cc1)[C@H]1O[C@@H]1c1ccc([N+](=O)[O-])cc1 | 13 | 13 | 13 | 13 | 13 | – | – | inactive | inactive | inactive | – | – |
| Cc1ccc([C@H]2O[C@@H]2C(=O)c2ccc(-c3ccccc3)cc2)cc1 | 13 | 8 | 8 | 8 | – | – | 8 | – | – | inactive | – | – |
| O=C(c1ccc(-c2ccccc2)cc1)[C@H]1O[C@@H]1c1ccc(Cl)cc1 | 13 | 13 | 13 | 13 | 13 | 8 | – | inactive | inactive | inactive | – | Active |
| O=C(c1ccc(-c2ccccc2)cc1)[C@H]1O[C@@H]1c1cccc(Br)c1 | 13 | 13 | 13 | 13 | 13 | 20 | – | Active | inactive | Active | Active | – |
| Nc1ccc([C@H]2O[C@@H]2C(=O)c2ccc(-c3ccccc3)cc2)cc1 | 13 | 20 | 20 | 13 | 20 | – | 20 | – | – | – | – | – |
